According to US20100279990A1, “ANTIPROLIFERATIVE COMPOUNDS, COMPOSITIONS AND METHODS OF USE” (RAMOT AT TEL-AVIV UNIVERSITY LTD., priority 2006, published 2010):
Where two headings read alike, the source gives them in different places.

Legend:
[1] = tested on: human Jurkat lymphoma cells; assay: Viability of human Jurkat lymphoma cells, alamar blue staining; format: cell-based; settings: for IC50: Homo sapiens, 48 hr, alamar blue
Experimental: This example illustrates cell viability data derived from the incubation of a human. […] The results are depicted in FIGS. 1A, 1B, and 1C. […] See Nociari et al., J. Immunol. […] Each point represents the mean+/−SE of 4 determinations.

[2] = tested on: MAXF 401NL; assay: Monolayer Assay, PI: MAXF 401NL (Breast); format: cell-based, human
Description: (§1) This example illustrates cell proliferation data in the form of IC50, IC70 and IC90 values obtained by exposure of human cancer cell-lines to compound (Ia). […].

[3] = tested on: PRXF 22RV1; assay: Monolayer Assay, PI: PRXF 22RV1 (Prostate); format: cell-based, human
Description: as §1

[4] = tested on: CNXF 498NL; assay: Monolayer Assay, PI: CNXF 498NL; format: cell-based, human
Description: as §1

[5] = tested on: LXF 526L; assay: Monolayer Assay, PI: LXF 526L (Lung); format: cell-based, human
Description: as §1

[6] = tested on: human tumor cell lines; assay: In vitro antitumor activity in panel of 37 human tumor cell lines (Monolayer Assay, PI), summary; format: cell-based
[7] = tested on: PXF 1752L; assay: Monolayer Assay, PI: PXF 1752L (Pleuramesothelioma); format: cell-based, human
Description: as §1

[8] = tested on: CNXF SF268; assay: Monolayer Assay, PI: CNXF SF268; format: cell-based, human
Description: as §1

[9] = tested on: LXF 1121L; assay: Monolayer Assay, PI: LXF 1121L (Lung); format: cell-based, human
Description: as §1

[10] = tested on: CEM/C1 cell-lines (camptothecin resistant human T-cell leukemia); assay: Viability of CEM/C1 cell-line, alamar blue; format: cell-based; settings: 1-30 μM
Description: This cell-line is a camptothecin (CPT) resistant derivative of the human T-cell leukemia purchased from ATCC (USA). […] The results are depicted in FIG. 14. Each point represents the mean+/−SEM of 4 determinations.

[11] = tested on: LS1034 human colon MDR carcinoma cells; assay: Viability of LS1034 human colon MDR carcinoma cells (FIG. 7B); format: cell-based
Description: This example illustrates cell viability obtained by separately administering different concentrations of compound (Ia), sertraline, doxorubicin, cisplatin, fluorouracil (5-FU), methotrexate (MTX), and vincristin to LS1034 human colon MDR carcinoma cells. The results are depicted in FIG. 7B.

[12] = tested on: RXF 486L; assay: Monolayer Assay, PI: RXF 486L (Renal); format: cell-based, human
Description: as §1

[13] = tested on: PRXF DU145; assay: Monolayer Assay, PI: PRXF DU145 (Prostate); format: cell-based, human
Description: as §1

[14] = tested on: human glioma U87 cells; assay: Viability of human glioma U87 cell-line; format: cell-based; settings: FIG. 9
[15] = tested on: CXF HCT116; assay: Monolayer Assay, PI: CXF HCT116 (Colorectal); format: cell-based, human
Description: as §1

[16] = mean over human cancer cell-lines

`CN[C@H]1CC[C@@H](c2ccc(Cl)c(Cl)c2)c2ccc(C#CCCCO)cc21` [compound (Ia), (1S-cis)-4-(3,4-dichlorophenyl)-7-(5-hydroxy-1-pentyn-1-yl)-1,2,3,4-tetrahydro-N-methyl-1-naphthalenamine hydroiodide] was tested, and the IC50 ([1]; FIG. 1A, read-out: IC50, anti-proliferative activity) was 12.5 µM, the IC50 ([1]; FIG. 1B, read-out: IC50, decrease in cell viability) was 16.2 µM and the “potency compared with sertraline” value ([1]; lower concentrations (1-10 μM), FIG. 1B) was “higher potency than sertraline”. The “Test/Control (%)” value ([2]; 2.3 μg/ml) was 70%, the Test/Control activity class ([2]; 2.3 μg/ml) was “− (− (T/C = 50))” and the “Test/Control (%)” value ([2]; 7.5 μg/ml) was 9%. The Test/Control activity class ([2]; 7.5 μg/ml) was “+++ (+++ (T/C < 10))”, the “Test/Control (%)” value ([2]; 23. μg/ml) was 3% and the Test/Control activity class ([2]; 23. μg/ml) was “+++ (+++ (T/C < 10))”. The “Test/Control (%)” value ([2]; 75. μg/ml) was 3%, the Test/Control activity class ([2]; 75. μg/ml) was “+++ (+++ (T/C < 10))” and the “Test/Control (%)” value ([2]; .75 μg/ml) was 103%. The Test/Control activity class ([2]; .75 μg/ml) was “− (− (T/C = 50))”, the “Test/Control (%)” value ([3]; 2.3 μg/ml) was 80% and the Test/Control activity class ([3]; 2.3 μg/ml) was “− (− (T/C = 50))”. The “Test/Control (%)” value ([3]; 7.5 μg/ml) was 24%, the Test/Control activity class ([3]; 7.5 μg/ml) was “++ (++ (10 <= T/C < 30))” and the “Test/Control (%)” value ([3]; 23. μg/ml) was 2%. The Test/Control activity class ([3]; 23. μg/ml) was “+++ (+++ (T/C < 10))”, the “Test/Control (%)” value ([3]; 75. μg/ml) was 2% and the Test/Control activity class ([3]; 75. μg/ml) was “+++ (+++ (T/C < 10))”. For the same compound, the “Test/Control (%)” value ([3]; .75 μg/ml) was 85%, the Test/Control activity class ([3]; .75 μg/ml) was “− (− (T/C = 50))” and the “Test/Control (%)” value ([4]; 2.3 μg/ml) was 101%. For the same compound, the Test/Control activity class ([4]; 2.3 μg/ml) was “− (− (T/C = 50))”, the “Test/Control (%)” value ([4]; 7.5 μg/ml) was 5% and the Test/Control activity class ([4]; 7.5 μg/ml) was “+++ (+++ (T/C < 10))”. For the same compound, the “Test/Control (%)” value ([4]; 23. μg/ml) was 3%, the Test/Control activity class ([4]; 23. μg/ml) was “+++ (+++ (T/C < 10))” and the “Test/Control (%)” value ([4]; 75. μg/ml) was 1%. For the same compound, the Test/Control activity class ([4]; 75. μg/ml) was “+++ (+++ (T/C < 10))”, the “Test/Control (%)” value ([4]; .75 μg/ml) was 97% and the Test/Control activity class ([4]; .75 μg/ml) was “− (− (T/C = 50))”. For the same compound, the “Test/Control (%)” value ([5]; 2.3 μg/ml) was 81%, the Test/Control activity class ([5]; 2.3 μg/ml) was “− (− (T/C = 50))” and the “Test/Control (%)” value ([5]; 7.5 μg/ml) was 6%. For the same compound, the Test/Control activity class ([5]; 7.5 μg/ml) was “+++ (+++ (T/C < 10))”, the “Test/Control (%)” value ([5]; 23. μg/ml) was 5% and the Test/Control activity class ([5]; 23. μg/ml) was “+++ (+++ (T/C < 10))”. The “Test/Control (%)” value ([5]; 75. μg/ml) was 4%, the Test/Control activity class ([5]; 75. μg/ml) was “+++ (+++ (T/C < 10))” and the “Test/Control (%)” value ([5]; .75 μg/ml) was 92%. For the same compound, the Test/Control activity class ([5]; .75 μg/ml) was “− (− (T/C = 50))”, the “active*/total cell lines” value ([6]; 2.3 μg/ml) was 0/37 and the “active*/total cell lines, percent” value ([6]; 2.3 μg/ml) was 0%. The “active*/total cell lines” value ([6]; 7.5 μg/ml) was 26/37, the “active*/total cell lines, percent” value ([6]; 7.5 μg/ml (text: concentration of 7.5), hydroiodide) was 70% and the “active*/total cell lines” value ([6]; 23. μg/ml) was 37/37. For the same compound, the “active*/total cell lines, percent” value ([6]; 23. μg/ml) was 100%, the “active*/total cell lines” value ([6]; 75. μg/ml) was 37/37 and the “active*/total cell lines, percent” value ([6]; 75. μg/ml) was 100%. The “active*/total cell lines” value ([6]; .75 μg/ml) was 0/37, the “active*/total cell lines, percent” value ([6]; .75 μg/ml) was 0% and the IC50 [6, 16] was 4.9 µM. For the same compound, the “mean IC70” value [6, 16] was 6.9 µM, the “Test/Control (%)” value ([7]; 2.3 μg/ml) was 81% and the Test/Control activity class ([7]; 2.3 μg/ml) was “− (− (T/C = 50))”. The “Test/Control (%)” value ([7]; 7.5 μg/ml) was 27%, the Test/Control activity class ([7]; 7.5 μg/ml) was “++ (++ (10 <= T/C < 30))” and the “Test/Control (%)” value ([7]; 23. μg/ml) was 5%. The Test/Control activity class ([7]; 23. μg/ml) was “+++ (+++ (T/C < 10))”, the “Test/Control (%)” value ([7]; 75. μg/ml) was 3% and the Test/Control activity class ([7]; 75. μg/ml) was “+++ (+++ (T/C < 10))”. The “Test/Control (%)” value ([7]; .75 μg/ml) was 99%, the Test/Control activity class ([7]; .75 μg/ml) was “− (− (T/C = 50))” and the “Test/Control (%)” value ([8]; 2.3 μg/ml) was 70%. The Test/Control activity class ([8]; 2.3 μg/ml) was “− (− (T/C = 50))”, the “Test/Control (%)” value ([8]; 7.5 μg/ml) was 5% and the Test/Control activity class ([8]; 7.5 μg/ml) was “+++ (+++ (T/C < 10))”. For the same compound, the “Test/Control (%)” value ([8]; 23. μg/ml) was 4%, the Test/Control activity class ([8]; 23. μg/ml) was “+++ (+++ (T/C < 10))” and the “Test/Control (%)” value ([8]; 75. μg/ml) was 3%. For the same compound, the Test/Control activity class ([8]; 75. μg/ml) was “+++ (+++ (T/C < 10))”, the “Test/Control (%)” value ([8]; .75 μg/ml) was 91% and the Test/Control activity class ([8]; .75 μg/ml) was “− (− (T/C = 50))”. The “Test/Control (%)” value ([9]; 2.3 μg/ml) was 104%, the Test/Control activity class ([9]; 2.3 μg/ml) was “− (− (T/C = 50))” and the “Test/Control (%)” value ([9]; 7.5 μg/ml) was 72%. The Test/Control activity class ([9]; 7.5 μg/ml) was “− (− (T/C = 50))”, the “Test/Control (%)” value ([9]; 23. μg/ml) was 2% and the Test/Control activity class ([9]; 23. μg/ml) was “+++ (+++ (T/C < 10))”. The “Test/Control (%)” value ([9]; 75. μg/ml) was 1%, the Test/Control activity class ([9]; 75. μg/ml) was “+++ (+++ (T/C < 10))” and the “Test/Control (%)” value ([9]; .75 μg/ml) was 103%. For the same compound, the Test/Control activity class ([9]; .75 μg/ml) was “− (− (T/C = 50))”, the IC50 [10] was 8.9 µM and the “effect on resistant cancer cells” value [11] was “has the ability to suppress resistant cancer cells”. The “Test/Control (%)” value ([12]; 2.3 μg/ml) was 103%, the Test/Control activity class ([12]; 2.3 μg/ml) was “− (− (T/C = 50))” and the “Test/Control (%)” value ([12]; 7.5 μg/ml) was 81%. The Test/Control activity class ([12]; 7.5 μg/ml) was “− (− (T/C = 50))”, the “Test/Control (%)” value ([12]; 23. μg/ml) was 9% and the Test/Control activity class ([12]; 23. μg/ml) was “+++ (+++ (T/C < 10))”. For the same compound, the “Test/Control (%)” value ([12]; 75. μg/ml) was 5%, the Test/Control activity class ([12]; 75. μg/ml) was “+++ (+++ (T/C < 10))” and the “Test/Control (%)” value ([12]; .75 μg/ml) was 102%. The Test/Control activity class ([12]; .75 μg/ml) was “− (− (T/C = 50))”, the “Test/Control (%)” value ([13]; 2.3 μg/ml) was 94% and the Test/Control activity class ([13]; 2.3 μg/ml) was “− (− (T/C = 50))”. For the same compound, the “Test/Control (%)” value ([13]; 7.5 μg/ml) was 4%, the Test/Control activity class ([13]; 7.5 μg/ml) was “+++ (+++ (T/C < 10))” and the “Test/Control (%)” value ([13]; 23. μg/ml) was 1%. The Test/Control activity class ([13]; 23. μg/ml) was “+++ (+++ (T/C < 10))”, the “Test/Control (%)” value ([13]; 75. μg/ml) was 1% and the Test/Control activity class ([13]; 75. μg/ml) was “+++ (+++ (T/C < 10))”. The “Test/Control (%)” value ([13]; .75 μg/ml) was 102%, the Test/Control activity class ([13]; .75 μg/ml) was “− (− (T/C = 50))” and the “effect on cell viability” value [14] was “inhibit this glioma cell-line in a dose dependant fashion”. For the same compound, the “efficacy compared with paroxetine” value [14] was “higher efficacy than paroxetine”, the “Test/Control (%)” value ([15]; 2.3 μg/ml) was 93% and the Test/Control activity class ([15]; 2.3 μg/ml) was “− (− (T/C = 50))”. The “Test/Control (%)” value ([15]; 7.5 μg/ml) was 4%, the Test/Control activity class ([15]; 7.5 μg/ml) was “+++ (+++ (T/C < 10))” and the “Test/Control (%)” value ([15]; 23. μg/ml) was 2%. The Test/Control activity class ([15]; 23. μg/ml) was “+++ (+++ (T/C < 10))”, the “Test/Control (%)” value ([15]; 75. μg/ml) was 1% and the Test/Control activity class ([15]; 75. μg/ml) was “+++ (+++ (T/C < 10))”. The “Test/Control (%)” value ([15]; .75 μg/ml) was 99% and the Test/Control activity class ([15]; .75 μg/ml) was “− (− (T/C = 50))”.
